Results reported in US7718677B2, “Methods and compositions for reduction of side effects of therapeutic treatments” (priority 2007, dated 2010).
“And” between values parts separate entries of the source, which are not always exact repeats. Equal entries are not always repeated.

Columns and labels:
[1] = test system: Squirrel (Saimiri sciureus) monkeys with nigrostriatal damage; assay: Levodopa-induced dyskinesias in MPTP-lesioned monkeys, nicotine in drinking solution before levodopa (Example 1); type: in vivo; settings: scale 0-4, mean ± SE
Procedure: Animals: Squirrel (Saimiri sciureus) monkeys (n=7) were purchased from World Wide Primates (Miami, Fla.). The animals weighed between 0.6-0.9 kg and were in mid to late adulthood as determined from their general appearance (dentition, fur, other). Female monkeys were used since older animals were available that may better model Parkinson's disease. The animals were placed in quarantine upon arrival, and maintained in a temperature-controlled room (27±3° C.) with a relative humidity>30%, under a 13/11-hour light/dark cycle. Monkey food chow and fruits/vegetables were provided once daily, with water provided ad libitum. The monkeys were housed in separate cages to allow for clear behavioral assessments. The animals were released from quarantine after 1 month and treatments initiated. All procedures conformed to the National Institutes of Health Guide for the Care and Use of Laboratory Animals and were approved by the Institutional Animal Care and Use Committee at the Parkinson's Institute.
(§1) 1-Methyl-4-phenyl-1,2,3,6-tetrahydropyridine (MPTP) administration: Prior to lesioning, the animals were allowed to acclimate to the colony and rated for parkinsonism as described (Langston et al. Ann Neurol. 2000; 47:S79-89). All values were within the normal range. The monkeys were then injected subcutaneously with 2.0 mg/kg MPTP (Sigma, St-Louis, Mo.) dissolved in saline. The animals were rated for parkinsonism 3-4 weeks after MPTP administration. The disability scores ranged from 0 (normal) to 28 for a severely parkinsonian animal. Animals were assessed for 1) spatial hypokinesia (reduction in use of the available cage space), 2) body bradykinesia (increased slowness in body movement), 3) left and 4) right manual dexterity, 5) balance, 6) freezing and 7) action tremor. If they were not parkinsonian, MPTP injection (1.0-2.0 mg/kg) was repeated from 2-5 times for total doses of 3.5 to 13.5 mg/kg. Despite multiple MPTP dosing, two of the animals were not stably parkinsonian.
Nicotine treatment: All monkeys (n=7) were then given a drinking solution for 3 weeks consisting of commercially available orange Gatorade® to mask nicotine's bitter taste (FIG. 1). The control group (n=4) was continued on Gatorade® only, while nicotine (free base) was added to the Gatorade of the treated group (n=3). Nicotine dosing was started at 50 μg/ml for 1 week, 150 μg/ml for 1 week, with the concentration increased by […] over the next few weeks, up to 650 μg/ml (FIG. 1).
Levodopa administration: Monkeys were administered levodopa/carbidopa (5 mg/kg and 1.25 mg/kg, respectively), prepared by crushing a tablet of Sinemet® CR 100/25 (DuPont Pharma) and dissolving it in water. This dose of levodopa is within the range of that prescribed to Parkinson's disease patients. The monkeys were gavaged twice daily at 3.5-hour intervals for 8 weeks at a time using a 5-day-on/2-day-off schedule (Hsu et al., J Pharmacol Exp Ther. 2004; 311:770-777). During levodopa treatment, the monkeys were given fruits in the morning and food pellets 3.5 hours after the afternoon levodopa dose to optimize gastrointestinal absorption.
Dyskinesias were rated from videotapes, as described (Hsu et al., J Pharmacol Exp Ther. 2004; 311:770-777). This included a one hour baseline period (no drugs) from ˜8:00-9:00 AM, followed by two 3.5-hour treatment periods with levodopa starting at ˜9:00 AM and ˜12:30 PM. Dyskinesias were rated for 2-minute periods at 30-minute intervals by two independent raters blinded to treatment. They were rated on a scale of 0 (no dyskinesias) to 4; a score of 1 was indicative of subtle dyskinesias that were not sustained; 2, mild dyskinesias that were sustained; 3, moderate dyskinesias that impaired the ability to remain stationary; 4, severe dyskinesias that were generalized and incapacitating.
Data analyses: The levodopa treatment protocol used in the present study involved a 5-day-on/2-day-off schedule.

[2] = general description; cited from earlier work
[3] = test system: MPTP-lesioned squirrel monkeys; assay: Parkinsonism rating on or off levodopa in MPTP-lesioned monkeys; type: in vivo, Saimiri sciureus; parameters: key to Parkinson Ratings Expt 1 / Parkinson Ratings Expt 2 (crossover): disability score 0 = normal to 28 = severely parkinsonian
Procedure: as §1
Data analyses: The levodopa treatment protocol used in the present study involved a 5-day-on/2-day-off schedule. Parkinsonian ratings were done on Monday and Friday of each week, with the score averaged over the two days. Dyskinesias ratings were determined by averaging the scores on Wednesday and Thursday of each week. All values are expressed as the mean±SE of the indicated number of animals. Results were compared using paired t-tests or analysis of variance (ANOVA) followed by Bonferroni multiple comparison post hoc test, using Prism® program (GraphPad Software, Inc, San Diego, Calif.). A level of 0.05 was considered significant.
White bars indicate no nicotine treatment and black bars indicate nicotine treatment. Parkinsonism was evaluated immediately before the afternoon L-dopa dose and 1.5 to 2 hours after L-dopa treatment, when a maximal antiparkinsonian effect is anticipated. Two of the seven animals in the study were not parkinsonian, and therefore were not included in this analysis. Error bars are the means±standard error of five animals before and after crossover of nicotine treatment. **p<0.01, as compared with the same group with no L-dopa treatment by a Mann-Withney test.

[4] = on levodopa treatment, 1.5-2 hours after dosing, individual animals, scale 0-28

SMILES: N[C@@H](Cc1ccc(O)c(O)c1)C(=O)O [levodopa, (−)-L-a-amino-b-(3,4-dihydroxybenzene) propanoic acid]
- dyskinetic ratings 3 hours after the afternoon levodopa treatment ([1]; week 2/3 of levodopa treatment, levodopa/carbidopa 5/1.25 mg/kg twice daily): 0.5 ± 0.3
- dyskinetic ratings 3 hours after the afternoon levodopa treatment ([1]; week 4 of levodopa treatment): 1.0 ± 0.4
- dyskinetic ratings 3 hours after the afternoon levodopa treatment ([1]; week 6 of levodopa treatment): 1.1 ± 0.2
- dyskinetic ratings 3 hours after the afternoon levodopa treatment ([1]; week 8 of levodopa treatment): 0.9 ± 0.1
- solubility in water [2]: slightly soluble
- parkinsonism ratings ([3]; measured 1.5-2 hours after levodopa dosing): reduced
- Parkinson Ratings Expt 1 [3, 4]: 0.4 (2×) and 0.6
- Parkinson Ratings Expt 2 (crossover) [3, 4]: 1.8 and 0.9
- Parkinson Ratings Mean ± SE (n) ([3]; on levodopa treatment, 1.5-2 hours after dosing, n=5): 0.8 ± 0.3 (5)
